Laboratory results from BindingDB's records for doi:10.7270/Q25D8Q92 (Burnham Center For Chemical Genomics, 2011).

Target: T1, Bcl-2-related protein A1 (Mus musculus, UniProt Q07440)
T1 sequence (Q07440 whole entry): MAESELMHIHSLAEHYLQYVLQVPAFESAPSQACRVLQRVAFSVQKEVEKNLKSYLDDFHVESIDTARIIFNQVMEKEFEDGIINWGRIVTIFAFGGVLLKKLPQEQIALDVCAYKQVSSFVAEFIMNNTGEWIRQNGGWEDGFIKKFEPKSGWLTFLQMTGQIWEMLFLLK
Experiment: Bfl-1 activity inhibition – biochemical, dose response (AID 504689)

| SMILES | IC50 |
| --- | --- |
| C#CCOCCOCCOCCNc1nc(N2CCN(C(=O)CCCCCCCCCCNC(=O)[C@H](CCCCN)n3cc(C)nn3)CC2)nc(N2CCN(C(=O)CCCCCCCCCCNC(=O)[C@H](CCCN=C(N)N)n3cc(C[C@@H](C)CC)nn3)CC2)n1 [MLS002153614] | 6.58 µM |
| Cc1cc(C)c2c(c1)=C(NNC(=S)NCC1CCCO1)C(=O)N=2 (centres undefined) | > 20 µM |
| CCOC(=O)c1c(C)c2c(n1C)CCCC2N=O (centres undefined) [MLS000026784] | > 20 µM |
| Cc1cccc2c1C(=NNC(N)=S)C(=O)N2C1OC(CO)C(O)C(O)C1O (centres undefined) [The compound has not trivial name.] | > 20 µM |
| C#CCOCCOCCOCCNc1nc(N2CCN(C(=O)CCCCCCCCCCNC(=O)Cn3cc(CCCCCN)nn3)CC2)nc(N2CCN(C(=O)CCCCCCCCCCNC(=O)[C@H]([C@@H](C)CC)n3cc(CCCCCN)nn3)CC2)n1 [MLS002153714] | > 20 µM |
| C#CCOCCOCCOCCNc1nc(N2CCN(C(=O)[C@H](CCCN=C(N)N)n3cc(C(N)[C@H](C)CC)nn3)CC2)nc(N2CCN(C(=O)[C@H](CCCN=C(N)N)n3cc(C(N)[C@@H](C)CC)nn3)CC2)n1 (some centres undefined) [MLS002473475] | > 20 µM |
| C#CCOCCOCCOCCNc1nc(N2CCN(C(=O)CCCCCCCCCCNC(=O)[C@H](CCCCN)n3cc(CCO)nn3)CC2)nc(N2CCN(C(=O)CCCCCCCCCCNC(=O)[C@H](CCCCN)n3cc(CCO)nn3)CC2)n1 [MLS002153615] | > 20 µM |
| COCCNC(=S)NN=C1C(=O)Nc2ccc([N+](=O)[O-])cc21 [1-(2-methoxyethyl)-3-[(5-nitro-2-oxoindol-3-yl)amino]thiourea] | > 20 µM |
| C#CCOCCOCCOCCNc1nc(N2CCN(C(=O)CCCCCCCCCCNC(=O)[C@H](CCCCN)n3cc(CCO)nn3)CC2)nc(N2CCN(C(=O)CCCCCCCCCCNC(=O)[C@H](CCCCN)n3cc(CCCC(=O)O)nn3)CC2)n1 [MLS002153608] | > 20 µM |
| NC(=S)NN=C1C(=O)N(CCCl)c2ccccc21 | > 20 µM |
| C#CCOCCOCCOCCNc1nc(N2CCN(C(=O)CCCCCCCCCCNC(=O)[C@@H](CCSC)n3cc(CCO)nn3)CC2)nc(N2CCN(C(=O)CCCCCCCCCCNC(=O)[C@H](CO)n3cc(CCCCCN)nn3)CC2)n1 [MLS002153734] | > 20 µM |
| C#CCOCCOCCOCCNc1nc(N2CCN(C(=O)CCCCCCCCCCNC(=O)[C@H](CCCCN)n3cc(CCO)nn3)CC2)nc(N2CCN(C(=O)CCCCCCCCCCNC(=O)[C@@H]([C@H](C)O)n3cc(C)nn3)CC2)n1 [MLS002153685] | > 20 µM |
| CCN(CC)CCOC(=O)c1ccc(N=CC(C#N)c2nc(-c3ccc(OC)cc3)cs2)cc1 (centres undefined) [4-[[(Z)-2-cyano-2-[4-(4-methoxyphenyl)-2-thiazolyl]ethenyl]amino]benzoic acid 2-(diethylamino)ethyl ester] | 2.99 µM |
| O=C1Nc2ccc([N+](=O)[O-])cc2C1=NNC(=S)NCC1CCCO1 (centres undefined) | > 20 µM |
| C#CCOCCOCCOCCNc1nc(N2CCN(C(=O)CCCCCCCCCCNC(=O)Cn3cc(CCCCCN)nn3)CC2)nc(N2CCN(C(=O)CCCCCCCCCCNC(=O)Cn3cc(C[C@@H](C)O)nn3)CC2)n1 [KG-TG] | > 20 µM |
| C#CCOCCOCCOCCNc1nc(N2CCN(C(=O)CCCCCCCCCCNC(=O)Cn3cc(CCCCCN)nn3)CC2)nc(N2CCN(C(=O)CCCCCCCCCCNC(=O)[C@H](CO)n3cc(CCCSC)nn3)CC2)n1 [MLS002153667] | 11.8 µM |
| CCN(CC)CCOC(=O)c1ccc(N=CC(C#N)c2nc(-c3ccc4c(c3)OCO4)cs2)cc1 (centres undefined) [2-(diethylamino)ethyl 4-[[(Z)-2-[4-(1,3-benzodioxol-5-yl)-1,3-thiazol-2-yl]-2-cyano-ethenyl]amino]benzoate] | 1.72 µM |
| C#CCOCCOCCOCCNc1nc(N2CCN(C(=O)CCCCCCCCCCNC(=O)[C@H]([C@@H](C)CC)n3cc(CCCCN=C(N)N)nn3)CC2)nc(N2CCN(C(=O)CCCCCCCCCCNC(=O)[C@@H]([C@H](C)O)n3cc(C)nn3)CC2)n1 [GT-RI] | > 20 µM |
| Cc1cccc(NC(=S)NNC2=c3ccccc3=NC2=O)c1 | > 20 µM |
| C#CCOCCOCCOCCNc1nc(N2CCN(C(=O)CCCCCCCCCCNC(=O)[C@H](CO)n3cc(CCCSC)nn3)CC2)nc(N2CCN(C(=O)CCCCCCCCCCNC(=O)[C@H](CCCCN)n3cc(CCO)nn3)CC2)n1 [SMR001318322] | 14.2 µM |
| CC1=CC(C)(C)N2C(=O)/C(=N\NC(N)=S)c3cccc1c32 [SMR000218901] | > 20 µM |
| CCOc1ccc(-c2csc(NC(=O)c3cccc(-n4c(O)ccc4O)c3)n2)cc1 [SMR000319795] | > 20 µM |
| C#CCOCCOCCOCCNc1nc(N2CCN(C(=O)[C@H](Cc3cc4ccccc4[nH]3)n3cc([C@@H](N)C(C)CC)nn3)CC2)nc(N2CCN(C(=O)[C@H](Cc3cc4ccccc4[nH]3)n3cc([C@@H](N)Cc4ccc(O)cc4)nn3)CC2)n1 (some centres undefined) [SMR000391146] | 11.7 µM |
| COc1cc2c3c(c1)/C(=N/NC(N)=S)C(=O)N3C(C)(C)C=C2C [MLS000807018] | > 20 µM |
| CC(C)NC(=S)NNC1=c2cc(C(C)C)ccc2=NC1=O [SMR000242097] | > 20 µM |

| SMILES | IC50 |
| --- | --- |
| C#CCOCCOCCOCCNc1nc(N2CCN(C(=O)CCCCCCCCCCNC(=O)[C@H]([C@@H](C)CC)n3cc(CCCCN=C(N)N)nn3)CC2)nc(N2CCN(C(=O)CCCCCCCCCCNC(=O)[C@H](CCCCN)n3cc(C)nn3)CC2)n1 [RI-GK] | 8.52 µM |
| C#CCOCCOCCOCCNc1nc(N2CCN(C(=O)CCCCCCCCCCNC(=O)Cn3cc(C[C@@H](C)O)nn3)CC2)nc(N2CCN(C(=O)CCCCCCCCCCNC(=O)[C@H](CCCN=C(N)N)n3cc(C[C@@H](C)CC)nn3)CC2)n1 [MLS002153601] | 10.1 µM |
| CCNC(=S)NNC1=c2cc(C(C)C)ccc2=NC1=O [1-ethyl-3-[(2-oxo-5-propan-2-yl-3-indolyl)amino]thiourea] | > 20 µM |
| C#CCOCCOCCOCCNc1nc(N2CCN(C(=O)[C@H](Cc3cc4ccccc4[nH]3)n3cc([C@@H](N)C(C)CC)nn3)CC2)nc(N2CCN(C(=O)[C@H](CCCCN)n3cc([C@@H](N)CC(C)C)nn3)CC2)n1 (some centres undefined) [MLS000562581] | > 20 µM |
| C#CCOCCOCCOCCNc1nc(N2CCN(C(=O)CCCCCCCCCCNC(=O)[C@H]([C@@H](C)CC)n3cc(CCCCCN)nn3)CC2)nc(N2CCN(C(=O)CCCCCCCCCCNC(=O)[C@H](CCCCN)n3cc(CCCC(=O)O)nn3)CC2)n1 [KI-EK] | > 20 µM |
| CC(=O)N1N=C(C2C(=O)N(C)C(=O)N(C)C2=O)CC1c1ccccc1 (centres undefined) [5-(1-acetyl-5-phenylpyrazolidin-3-ylidene)-1,3-dimethyl-1,3-diazinane-2,4,6-trione] | > 20 µM |
| CCCCNC(=S)N/N=C1\C(=O)Nc2ccccc21 [1-butyl-3-[(2-oxidanylideneindol-3-yl)amino]thiourea] | > 20 µM |
| C#CCOCCOCCOCCNc1nc(N2CCN(C(=O)CCCCCCCCCCNC(=O)[C@H](CCCCN)n3cc(C)nn3)CC2)nc(N2CCN(C(=O)CCCCCCCCCCNC(=O)[C@@H]([C@H](C)CC)n3cc(CCCCCN)nn3)CC2)n1 [MLS002153655] | 8.02 µM |
| C#CCOCCOCCOCCNc1nc(N2CCN(C(=O)[C@H](CCCCN)n3cc([C@@H](N)C(C)CC)nn3)CC2)nc(N2CCN(C(=O)[C@H](Cc3cc4ccccc4[nH]3)n3cc([C@@H](N)C(C)CC)nn3)CC2)n1 (some centres undefined) [MLS000562580] | > 20 µM |
| Oc1c(Cc2cnc[nH]2)[nH]c(=S)n1-c1ccccc1 [MLS001163810] | > 20 µM |
| C#CCOCCOCCOCCNc1nc(N2CCN(C(=O)CCCCCCCCCCNC(=O)[C@@H](CCC(=O)O)n3cc(CCCCCN)nn3)CC2)nc(N2CCN(C(=O)CCCCCCCCCCNC(=O)[C@H]([C@@H](C)CC)n3cc(CCCCCN)nn3)CC2)n1 [KI-KE] | > 20 µM |
| CC1CC(C)(C)N2C(=O)/C(=N\NC(N)=S)c3cccc1c32 (centres undefined) [SMR000414933] | > 20 µM |
| N=C(N)C1=CC(=O)/C(=C/C=c2ccc(=C(N)N)cc2)C=C1 [(4E)-4-[2-[4-[bis(azanyl)methylidene]cyclohexa-2,5-dien-1-ylidene]ethylidene]-3-oxidanylidene-cyclohexa-1,5-diene-1-carboximidamide;2-oxidanylethanesulfonic acid] | > 20 µM |
| CCOC(=O)C1C(COC(=O)c2ncc(Cl)c(Cl)c2Cl)=NC(=O)NC1C (centres undefined) | > 20 µM |
| COc1ccc2nc(C)cc(N=NCc3ccc(F)cc3)c2c1 [N-[(4-fluorophenyl)methylideneamino]-6-methoxy-2-methyl-4-quinolinamine] | 17 µM |
| C#CCOCCOCCOCCNc1nc(N2CCN(C(=O)CCCCCCCCCCNC(=O)Cn3cc(CCCCCN)nn3)CC2)nc(N2CCN(C(=O)CCCCCCCCCCNC(=O)Cn3cc(CCCCCN)nn3)CC2)n1 [SMR001231146] | 13.3 µM |
| O=C1Nc2ccccc2/C1=N/NC(=S)Nc1ccc(O)cc1 [1-(4-hydroxyphenyl)-3-[(2-oxidanylideneindol-3-yl)amino]thiourea] | > 20 µM |
| C#CCOCCOCCOCCNc1nc(N2CCN(C(=O)C([C@@H](C)CC)n3cc(C(N)COC(=O)C(F)(F)F)nn3)CC2)nc(N2CCN(C(=O)[C@H](CCCCN)n3cc(C(N)CC(C)C)nn3)CC2)n1 (some centres undefined) [SMR000453712] | > 20 µM |
| COC(=O)c1ccc(CN2C(=O)C(=NNC(N)=S)c3ccccc32)o1 | > 20 µM |
| C#CCOCCOCCOCCNc1nc(N2CCN(C(=O)[C@H](CCCCN)n3cc([C@@H](N)CC(C)C)nn3)CC2)nc(N2CCN(C(=O)[C@H](Cc3cc4ccccc4[nH]3)n3cc([C@@H](N)Cc4ccc(O)cc4)nn3)CC2)n1 [SMR000391143] | > 20 µM |
| COc1cc(C2c3c(-c4cccs4)n[nH]c3OC(=N)C2C#N)cc(OC)c1O (centres undefined) [SMR000275523] | > 20 µM |
| C#CCOCCOCCOCCNc1nc(N2CCN(C(=O)[C@H](Cc3cc4ccccc4[nH]3)n3cc([C@@H](N)CC(C)C)nn3)CC2)nc(N2CCN(C(=O)[C@H](Cc3cc4ccccc4[nH]3)n3cc([C@@H](N)CC(C)C)nn3)CC2)n1 [LW-LW] | 19.7 µM |
| CCN(CC)CCOC(=O)c1ccc(N=CC(C#N)c2nc(-c3cc4ccccc4oc3=O)cs2)cc1 (centres undefined) [2-(diethylamino)ethyl 4-[[(Z)-2-cyano-2-[4-(2-oxochromen-3-yl)-1,3-thiazol-2-yl]ethenyl]amino]benzoate] | 0.55 µM |
| C#CCOCCOCCOCCNc1nc(N2CCN(C(=O)CCCCCCCCCCNC(=O)[C@H]([C@@H](C)CC)n3cc(CCCCCN)nn3)CC2)nc(N2CCN(C(=O)CCCCCCCCCCNC(=O)[C@H]([C@@H](C)CC)n3cc(CCCCN=C(N)N)nn3)CC2)n1 [MLS002153718] | 6.1 µM |
